How the values were obtained:
Assay in all cases: relative viability (nuclei count vs DMSO), 5 days (fraction); higher = more cells survive
AZD7762 = compound: NC(=O)Nc1cc(-c2cccc(F)c2)sc1C(=O)N[C@H]1CCCNC1 [AZD7762]
Summary of the method: (§1)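 Lung cancer cell lines were seeded into 1536-well plates, kept overnight at 37 °C and pinned with five library-drug doses (not always all listed) spaced by √10. After 5 days, nuclei were Hoechst-stained, imaged at 4× and counted with MetaXpress. Viability is treated-well nuclei over vehicle-well nuclei, taken as a median across plates. Plates needed control CV below 25% and at least one doubling.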

[1] = compound: O=C(O)c1ccc(-c2c[nH]c3ncc(-c4ccccc4)cc23)cc1C1CCCC1
Summary of the method: as §1

C-75 = compound: CCCCCCCC[C@H]1[C@@H](C(=C)C(=O)O1)C(=O)O [C-75]
Summary of the method: as §1

XAV939 = compound: Oc1nc(-c2ccc(C(F)(F)F)cc2)nc2c1CSCC2 [XAV939]
Summary of the method: as §1

Navitoclax = compound: CC1(C)CCC(c2ccc(Cl)cc2)=C(CN2CCN(c3ccc(C(=O)NS(=O)(=O)c4ccc(N[C@H](CCN5CCOCC5)CSc5ccccc5)c(S(=O)(=O)C(F)(F)F)c4)cc3)CC2)C1 [Navitoclax]
Summary of the method: as §1

| Cell Line | relative viability (AZD7762; 0.01 µM) | relative viability (AZD7762; 0.03162 µM) | relative viability (AZD7762; 0.1 µM) | relative viability (AZD7762; 0.2 µM, anchor plate) | relative viability (AZD7762; 0.3162 µM) | relative viability (AZD7762; 1 µM) | relative viability ([1]; 0.04 µM) | relative viability ([1]; 0.1265 µM) | relative viability ([1]; 0.4 µM) | relative viability ([1]; 1.265 µM) | relative viability (C-75; 0.08 µM) | relative viability (C-75; 0.253 µM) | relative viability (C-75; 0.8 µM) | relative viability (C-75; 2.53 µM) | relative viability (C-75; 8 µM) | relative viability (XAV939; 0.08 µM) | relative viability (XAV939; 0.253 µM) | relative viability (XAV939; 0.8 µM) | relative viability (XAV939; 2.53 µM) | relative viability (Navitoclax; 0.005 µM) | relative viability (Navitoclax; 0.05 µM) | relative viability (Navitoclax; 0.1581 µM) | relative viability (Navitoclax; 0.5 µM) | relative viability (Navitoclax; 0.5 µM, anchor plate) | relative viability (Navitoclax; 0.01581 µM) |
| --- | --- | --- | --- | --- | --- | --- | --- | --- | --- | --- | --- | --- | --- | --- | --- | --- | --- | --- | --- | --- | --- | --- | --- | --- | --- |
| EPLC-272H | 0.892 | 1.06 | 0.935 | 0.278 | 0.742 | 0.267 | 0.976 | 1.1 | 0.992 | 0.697 | 1.06 | 1.01 | 0.78 | 0.744 | 0.575 | 0.95 | 0.97 | 0.92 | 0.957 | 0.993 | 0.888 | 0.922 | 0.921 | 1.13 | – |
| EMC-BAC-2 | 1.05 | 1.02 | 1.05 | 1.17 | 0.995 | 0.975 | 0.993 | 1.04 | 0.974 | 0.899 | 0.959 | 0.952 | 0.908 | 0.828 | 0.921 | 1.01 | 0.969 | 0.869 | 0.655 | 0.924 | 0.981 | 0.932 | 0.976 | 1.16 | 1.02 |
| SK-MES-1 | 1 | 1.03 | 1.05 | – | 0.818 | 0.372 | 1 | 1.05 | 0.943 | 0.755 | 1.01 | 1.02 | 0.937 | 0.93 | 0.943 | 1.07 | 0.906 | 0.919 | 0.858 | 1.01 | 1.11 | 0.95 | 1.04 | 1.25 | 1.17 |
| ChaGo-K-1 | 1.01 | 0.969 | 1.06 | 0.873 | 0.905 | 0.841 | 1.05 | 1.01 | 0.896 | 1.02 | 0.93 | 0.98 | 0.931 | 0.799 | 0.966 | 0.978 | 0.894 | 1.03 | 0.973 | 1.03 | 0.727 | 0.961 | 1.04 | 1.09 | 1.01 |
| NCI-H1975 | 0.957 | 0.927 | 0.938 | 0.761 | 0.791 | 0.575 | 0.952 | 1.09 | 0.965 | 0.975 | 0.999 | 0.827 | 0.85 | 0.884 | 0.931 | 0.87 | 0.705 | 0.78 | 0.742 | 0.927 | 1.03 | 0.824 | 0.99 | 1.12 | 1.06 |
| NCI-H358 | 1.02 | 1.13 | 0.878 | 0.536 | 0.758 | 0.444 | 0.893 | 1.17 | 0.88 | 0.611 | 0.849 | 0.896 | 0.874 | 0.854 | 0.693 | 0.795 | 0.77 | 0.857 | 0.777 | 1.01 | 0.961 | 0.985 | 0.977 | – | 1.2 |
| NCI-H23 | 0.866 | 1.07 | 0.993 | 0.273 | 0.693 | 0.278 | 0.947 | 1.22 | 0.812 | 0.699 | 0.897 | 1.07 | 0.867 | 0.687 | 0.44 | 0.973 | 0.796 | 0.982 | 0.838 | 0.925 | 0.98 | 0.896 | 0.962 | 0.869 | 0.979 |
| NCI-H2085 | 1.03 | 0.992 | 1.08 | 0.973 | 1.05 | 0.864 | 0.932 | 1.04 | 0.956 | 0.933 | 1.04 | 0.974 | 0.988 | 0.866 | 0.975 | 1.05 | 0.893 | 0.902 | 0.891 | 1.01 | 0.93 | 1.01 | 1.05 | 1.12 | 1.14 |
| COR-L23 | 1.1 | 0.912 | 1.17 | – | 0.854 | 0.231 | 0.921 | 1.01 | 0.973 | 0.723 | 0.965 | 1.04 | 0.945 | 0.778 | 1.06 | 1.11 | 0.92 | 1.01 | 0.928 | 0.934 | 1.15 | 0.974 | 0.965 | 1.01 | 1.16 |
| RERF-LC-KJ | 0.976 | 1.03 | 1.06 | 1.03 | 1.04 | 0.959 | 1.02 | 0.96 | 0.985 | 0.916 | 1.02 | 1.14 | 0.981 | 0.95 | 1.06 | 0.968 | 0.862 | 0.859 | 0.743 | 0.973 | 0.961 | 1.01 | 0.997 | 0.987 | 0.98 |
| HCC-827 | 1.05 | 1.08 | 1.08 | 0.23 | 1.1 | 0.731 | 0.96 | 1.07 | 0.993 | 0.863 | 1.01 | 0.953 | 1.01 | 0.976 | 1.07 | 1.04 | 1.06 | 0.991 | 1.02 | 1.07 | 0.953 | 1.04 | 1.05 | 1.02 | 1.12 |
| NCI-H1299 | 1.06 | 1.01 | 1.06 | – | 1.02 | 0.56 | 1.03 | 1.04 | 0.957 | 0.878 | 1.01 | 0.98 | 1.02 | 0.899 | 1.03 | 1.04 | 0.939 | 1.06 | 1.03 | 1 | 1 | 1.01 | 1.03 | 1.03 | 1.05 |
| NCI-H727 | 0.838 | 1.18 | 0.953 | 0.576 | 0.764 | 0.444 | 0.995 | 1.01 | 0.986 | 0.928 | 0.824 | 1.4 | 0.968 | 0.73 | 1.04 | 1.11 | 0.731 | 0.899 | 0.975 | 0.886 | – | 0.87 | 0.894 | 0.491 | 1.18 |
| NCI-H1623 | 0.869 | 0.938 | 0.936 | – | 1.1 | 0.895 | 0.963 | 0.995 | 0.932 | 0.762 | 1.02 | 1.22 | 1.02 | 0.931 | 0.978 | 0.922 | 0.838 | 0.848 | 0.814 | 0.936 | 0.812 | 0.984 | 1.03 | – | 0.957 |
